Reference: publication PMC6199744, “Development of Chemical Proteomics for the Folateome and Analysis of the Kinetoplastid Folateome” (ACS Infectious Diseases, 2018)
Like-named read-outs stand apart in the source and are kept apart here.

Legend:
Format in all cases: binding
[1] = biological target: T1, HeLa cell extract proteins (Homo sapiens, UniProt Q15029)
T1 construct: endogenous in cells; host or cells: HeLa cell extract
T1 sequence (Q15029 1-972): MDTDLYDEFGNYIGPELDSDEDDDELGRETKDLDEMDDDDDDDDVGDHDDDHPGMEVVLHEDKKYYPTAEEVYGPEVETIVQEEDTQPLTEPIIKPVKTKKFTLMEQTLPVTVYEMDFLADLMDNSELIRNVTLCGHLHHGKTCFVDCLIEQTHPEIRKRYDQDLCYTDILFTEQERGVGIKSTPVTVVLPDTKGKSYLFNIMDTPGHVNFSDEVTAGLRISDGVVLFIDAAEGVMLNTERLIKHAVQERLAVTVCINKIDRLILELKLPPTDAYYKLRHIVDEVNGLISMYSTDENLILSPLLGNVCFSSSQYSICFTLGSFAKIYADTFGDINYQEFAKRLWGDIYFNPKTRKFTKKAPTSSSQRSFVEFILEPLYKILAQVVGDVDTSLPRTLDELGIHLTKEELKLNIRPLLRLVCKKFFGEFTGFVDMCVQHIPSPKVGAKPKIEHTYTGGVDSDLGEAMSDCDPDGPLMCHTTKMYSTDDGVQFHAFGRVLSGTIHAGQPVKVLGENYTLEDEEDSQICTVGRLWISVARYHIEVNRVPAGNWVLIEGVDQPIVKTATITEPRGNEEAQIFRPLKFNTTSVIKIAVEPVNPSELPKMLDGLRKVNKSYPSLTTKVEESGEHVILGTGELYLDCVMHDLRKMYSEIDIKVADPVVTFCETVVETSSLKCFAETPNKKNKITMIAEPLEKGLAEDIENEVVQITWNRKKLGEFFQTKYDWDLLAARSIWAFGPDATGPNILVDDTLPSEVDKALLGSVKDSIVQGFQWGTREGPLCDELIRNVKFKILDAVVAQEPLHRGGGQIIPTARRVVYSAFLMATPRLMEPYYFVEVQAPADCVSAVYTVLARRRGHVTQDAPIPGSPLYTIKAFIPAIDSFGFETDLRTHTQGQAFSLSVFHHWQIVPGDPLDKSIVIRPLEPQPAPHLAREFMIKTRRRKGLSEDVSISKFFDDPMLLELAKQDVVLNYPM

[2] = biological target: T2, HeLa cell extract proteins (Homo sapiens, UniProt P32320)
T2 construct: endogenous in cells; host or cells: HeLa cell extract

[3] = biological target: T3, HeLa cell extract proteins (Homo sapiens, UniProt P20073)
T3 construct: endogenous in cells; host or cells: HeLa cell extract
T3 sequence (P20073 1-488): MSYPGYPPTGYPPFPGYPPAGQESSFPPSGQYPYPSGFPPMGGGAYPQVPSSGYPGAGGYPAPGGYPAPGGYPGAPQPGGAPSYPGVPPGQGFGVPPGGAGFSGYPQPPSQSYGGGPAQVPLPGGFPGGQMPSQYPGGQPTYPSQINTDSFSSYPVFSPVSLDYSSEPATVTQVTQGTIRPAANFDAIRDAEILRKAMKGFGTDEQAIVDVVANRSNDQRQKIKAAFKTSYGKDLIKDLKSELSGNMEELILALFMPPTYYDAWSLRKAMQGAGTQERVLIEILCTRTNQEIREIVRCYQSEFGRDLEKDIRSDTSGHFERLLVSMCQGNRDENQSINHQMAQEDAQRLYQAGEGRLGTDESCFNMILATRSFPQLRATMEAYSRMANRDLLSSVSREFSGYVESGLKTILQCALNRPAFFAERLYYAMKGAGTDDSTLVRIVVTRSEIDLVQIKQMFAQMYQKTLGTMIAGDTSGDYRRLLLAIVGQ

[4] = biological target: T4, HeLa cell extract proteins (Homo sapiens, UniProt P78371)
T4 construct: endogenous in cells; host or cells: HeLa cell extract
T4 sequence (P78371 1-535): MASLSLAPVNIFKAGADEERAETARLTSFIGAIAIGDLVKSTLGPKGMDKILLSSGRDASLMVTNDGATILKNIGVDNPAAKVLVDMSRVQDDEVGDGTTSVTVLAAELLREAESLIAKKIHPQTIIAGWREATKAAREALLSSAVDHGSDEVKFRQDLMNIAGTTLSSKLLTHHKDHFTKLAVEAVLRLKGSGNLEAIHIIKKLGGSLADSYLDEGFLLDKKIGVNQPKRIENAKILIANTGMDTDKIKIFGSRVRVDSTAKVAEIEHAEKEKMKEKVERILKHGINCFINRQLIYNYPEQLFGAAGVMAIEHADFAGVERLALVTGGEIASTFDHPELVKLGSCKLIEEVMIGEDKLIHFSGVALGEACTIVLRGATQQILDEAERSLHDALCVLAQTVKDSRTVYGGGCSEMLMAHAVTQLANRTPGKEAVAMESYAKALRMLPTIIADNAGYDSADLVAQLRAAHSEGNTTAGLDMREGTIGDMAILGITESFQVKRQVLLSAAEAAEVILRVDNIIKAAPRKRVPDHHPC

[5] = biological target: T5, HeLa cell extract proteins (Homo sapiens, UniProt P49748)
T5 construct: endogenous in cells; host or cells: HeLa cell extract
T5 sequence (P49748 41-655): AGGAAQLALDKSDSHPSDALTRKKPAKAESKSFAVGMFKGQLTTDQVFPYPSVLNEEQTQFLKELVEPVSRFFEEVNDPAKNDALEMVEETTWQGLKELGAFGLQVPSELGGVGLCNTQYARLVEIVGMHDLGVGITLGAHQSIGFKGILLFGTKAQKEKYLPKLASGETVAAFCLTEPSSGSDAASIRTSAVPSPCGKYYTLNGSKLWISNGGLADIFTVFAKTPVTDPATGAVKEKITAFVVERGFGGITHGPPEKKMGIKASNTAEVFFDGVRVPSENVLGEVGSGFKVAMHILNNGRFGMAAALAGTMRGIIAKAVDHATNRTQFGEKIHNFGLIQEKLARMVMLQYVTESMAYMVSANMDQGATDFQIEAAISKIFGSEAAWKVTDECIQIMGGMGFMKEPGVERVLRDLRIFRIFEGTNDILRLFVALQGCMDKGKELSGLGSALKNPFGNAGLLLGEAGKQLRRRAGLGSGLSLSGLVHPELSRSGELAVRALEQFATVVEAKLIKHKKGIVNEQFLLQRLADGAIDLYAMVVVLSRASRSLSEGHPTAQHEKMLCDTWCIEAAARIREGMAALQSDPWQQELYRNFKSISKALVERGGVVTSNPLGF

T2 sequence (P32320 whole entry): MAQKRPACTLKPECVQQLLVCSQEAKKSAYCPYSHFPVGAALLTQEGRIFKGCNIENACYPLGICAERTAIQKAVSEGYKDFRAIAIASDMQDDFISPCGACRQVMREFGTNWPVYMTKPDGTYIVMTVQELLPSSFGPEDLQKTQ

Compound	fold changes relative to vehicle control ([1]; protein EFTUD2, HeLa)	fold changes relative to vehicle control ([2]; captured protein CDA, HeLa)	fold changes relative to vehicle control ([3]; protein ANXA7, HeLa)	fold changes relative to vehicle control ([4]; protein CCT2, HeLa)	fold changes relative to vehicle control ([5]; protein ACADVL, HeLa)	fold changes relative to vehicle control ([1]; HeLa, protein EFTUD2)	fold changes relative to vehicle control ([2]; HeLa, captured protein CDA)	fold changes relative to vehicle control ([3]; HeLa, protein ANXA7)	fold changes relative to vehicle control ([4]; HeLa, protein CCT2)	fold changes relative to vehicle control ([5]; HeLa, protein ACADVL)	other results
Nc1nc2cccc(-c3ccccc3)c2n1Cc1ccc(Cl)c(Cl)c1 [compound 3]	0.99	0.94	0.91	1.13	0.91	–	–	–	–	–	–
Nc1nc2[nH]cc(CCc3ccc(C(=O)N[C@@H](CCC(=O)O)C(=O)O)cc3)c2c(=O)[nH]1 [PTX, pemetrexed]	–	–	–	–	–	–	–	–	–	–	fold changes relative to vehicle control [1]: 0.9; fold changes relative to vehicle control [2]: 1.06; fold changes relative to vehicle control [3]: 1.02; fold changes relative to vehicle control [4]: 1.11; fold changes relative to vehicle control [5]: 1.03
Nc1nc2c(c(=O)[nH]1)N(C=O)C(CNc1ccc(C(=O)N[C@@H](CCC(=O)O)C(=O)O)cc1)CN2 (some centres unmarked) [LEU, leucovorin]	–	–	–	–	–	0.97	1.07	0.98	1.05	0.98	–
CCCCCCOc1cccc(Cc2cnc(N)nc2N)c1 [compound 2]	1.4	0.88	1.58	1.75	1.29	–	–	–	–	–	–
NCCOCCOCC(=O)Nc1nc2ncc(CNc3ccc(C(=O)NC(CCC(=O)O)C(=O)O)cc3)nc2c(=O)[nH]1 (centres unmarked) [compound 6]	–	–	–	–	–	1.04	0.89	1.13	1.23	1.22	–
CCCCCCOc1ccc(Cc2cnc(N)nc2N)cc1 [compound 1]	1.11	0.91	1.06	1.33	0.96	–	–	–	–	–	–
NCCCNc1ccc(C(=O)NC(CCC(=O)O)C(=O)O)cc1 (centres unmarked) [compound 7]	–	–	–	–	–	0.91	1.63	0.83	0.95	0.97	–
